From PMC9115767 (European journal of medicinal chemistry, 2021)
pEC50: −log10 of the molar value. Where two headings read alike, the source gives them in different places.

Experiments:
in vitro = details: human, microsomes
HIV-2 ROD = assay: microbe, parasite or virus in culture; format: cell-based
HIV-1 IIIB = format: cell-based
[1] = selectivity index, ratio CC50/EC50, HIV-1 IIIB
[2] = selectivity index, ratio CC50/EC50, HIV-2 ROD

| SMILES | SI HIV ROD (HIV-2 ROD) | SI HIV ROD (HIV-2 ROD; [2]) | other results |
| --- | --- | --- | --- |
| COc1ccc(N(C)C(=O)[C@H](Cc2ccccc2)NC(=O)CN2CCN(S(=O)(=O)c3ccc(N)cc3)CC2=O)cc1 [Compound 11l, reference compound] | – | – | CLint scaled at 3 h, 100 µM (in vitro): 356 mL/min/kg |
| COc1ccc(N(C)C(=O)[C@H](Cc2ccccc2)NC(=O)CN2CC(=O)N(CC(=O)N[C@@H](Cc3ccccc3)C(=O)N(C)c3ccc(OC)cc3)CC2=O)cc1 [Q-a1, (2S,2′S)-2,2'-((2,2'-(2,5-dioxopiperazine-1,4-diyl)bis(acetyl))bis(azanediyl)) bis(N-(4-methoxyphenyl)-N-methyl-3-phenylpropanamide)] | <1.00 | – | – |
| COc1ccc(N(C)C(=O)[C@H](Cc2cc(F)cc(F)c2)NC(=O)CN2CC(=O)N(CC(=O)N[C@@H](Cc3cc(F)cc(F)c3)C(=O)N(C)c3ccc(OC)cc3)CC2=O)cc1 [Q-a2, (2S,2S)-22′-((2,2'-(2,5'-dioxopiperazine-1,4-diyl)bis(acetyl))bis(azanediyl)) bis(3-(3,5-di-N-difluorophenyl)-N-(4-methoxyphenyl)-N-methylpropanamide)] | – | – | CLint scaled at 3 h, 100 µM (in vitro): 760 mL/min/kg |
| CN(C(=O)[C@H](Cc1ccccc1)NC(=O)CN1CCNCC1=O)c1ccccc1 [Q-b1, (S)–N-methyl-2-(2-(2-oxopiperazin-1-yl)acetamido)-N,3-diphenyl propanamide] | >1.19 | – | CC50 (MT-4 cells): > 317 µM; SI HIV IIIB (HIV-1 IIIB): >1.28 |
| COc1ccc(N(C)C(=O)[C@H](Cc2ccccc2)NC(=O)CN2CCNCC2=O)cc1 [Q-b2, (S)–N-(4-methoxyphenyl)-N-methyl-2-(2-(2-oxopiperazin-1-yl)acetamido)-3-phenylpropanamide] | – | >8.94 | SI HIV IIIB (HIV-1 IIIB; [1]): >3.30 |
| COc1ccc(N(C)C(=O)[C@H](Cc2ccccc2)NC(=O)CN2CCN(CC(=O)N[C@@H](Cc3ccccc3)C(=O)N(C)c3ccc(OC)cc3)C(=O)C2)cc1 [Q-c1, (2S,2′S)-2,2'-((2,2'-(2-oxopiperazine-1,4-diyl)bis(acetyl))bis(azanediyl)) bis(N-(4-methoxyphenyl)-N-methyl-3-phenylpropanamide)] | <1.00 | – | SI HIV IIIB (HIV-1 IIIB): ≤4.29 |
| COc1ccc(N(C)C(=O)[C@H](Cc2cc(F)cc(F)c2)NC(=O)CN2CCN(CC(=O)N[C@@H](Cc3ccccc3)C(=O)N(C)c3ccc(OC)cc3)C(=O)C2)cc1 [Q-c2, (S)-3-(3,5-difluorophenyl)-N-(4-methoxyphenyl)-2-(2-(4-(2-(((S)-1-((4-methoxyphenyl)(methyl)amino)-1-oxo-3-phenylpropan-2-yl)amino)-2-oxoethyl)-3-oxopiperazin-1-yl)acetamido)-N-methylpropanamide] | – | <1.00 | – |
| COc1ccc(N(C)C(=O)[C@H](Cc2ccccc2)NC(=O)CN2CCN(CC(=O)N[C@@H](Cc3ccccc3)C(=O)N(C)c3ccccc3)CC2=O)cc1 [Q-c3, (S)–N-(4-methoxyphenyl)-N-methyl-2-(2-(4-(2-(((S)-1-(methyl(phenyl)amino)-1-oxo-3-phenylpropan-2-yl)amino)-2-oxoethyl)-2-oxopiperazin-1-yl)acetamido)-3-phenylpropanamid] | – | <1.00 | SI HIV IIIB (HIV-1 IIIB; [1]): <1.00 |
| COc1ccc(N(C)C(=O)[C@H](Cc2ccccc2)NC(=O)CN2CCN(CC(=O)N[C@@H](Cc3cc(F)cc(F)c3)C(=O)N(C)c3ccc(OC)cc3)C(=O)C2)cc1 [Q-c5, (S)-3-(3,5-difluorophenyl)-N-(4-methoxyphenyl)-2-(2-(4-(2-(((S)-1-((4-methoxyphenyl)(methyl)amino)-1-oxo-3-phenylpropan-2-yl)amino)-2-oxoethyl)-2-oxopiperazin-1-yl)acetamido)-N-methyl-propanamide] | – | <1.00 | – |
| COc1ccc(N(C)C(=O)[C@H](Cc2cc(F)cc(F)c2)NC(=O)CN2CCN(CC(=O)N[C@@H](Cc3ccccc3)C(=O)N(C)c3ccccc3)CC2=O)cc1 [Q-c6, (S)-3-(3,5-difluorophenyl)-N-(4-methoxyphenyl)-N-methyl-2-(2-(4-(2-(((S)-1-(methyl(phenyl)amino)-1-oxo-3-phenylpropan-2-yl)amino)-2-oxoethyl)-2-oxopiperazin-1-yl)acetamido)propenamide] | <1.00 | – | – |
| CN(C(=O)[C@H](Cc1ccccc1)NC(=O)CN1CCN(CC(=O)N[C@@H](Cc2ccccc2)C(=O)N(C)c2ccccc2)C(=O)C1)c1ccccc1 [Q-c7, (2S,2′S)-2,2'-((2,2'-(2-oxopiperazine-1,4-diyl)bis(acetyl))bis(azanediyl)) bis(N-methyl-N,3-diphenylpropanamide)] | <1.00 | – | SI HIV IIIB (HIV-1 IIIB): <1.00; pEC50 (HIV-2 ROD; Human immunodeficiency virus 2, MT4, read-out: EC50 HIV ROD): < 4.49 |
| COc1ccc(N(C)C(=O)[C@H](Cc2cc(F)cc(F)c2)NC(=O)CN2CCN(CC(=O)N[C@@H](Cc3ccccc3)C(=O)N(C)c3ccccc3)C(=O)C2)cc1 [Q-c8, (S)-3-(3,5-difluorophenyl)-N-(4-methoxyphenyl)-N-methyl-2-(2-(4-(2-(((S)-1-(methyl(phenyl)amino)-1-oxo-3-phenylpropan-2-yl)amino)-2-oxoethyl)-3-oxopiperazin-1-yl)acetamido)propenamide] | <1.00 | – | – |
| COc1ccc(N(C)C(=O)[C@H](Cc2ccccc2)NC(=O)CN2CCN(CC(=O)N[C@@H](Cc3ccccc3)C(=O)N(C)c3ccccc3)C(=O)C2)cc1 [Q-c9, (S)–N-(4-methoxyphenyl)-N-methyl-2-(2-(4-(2-(((S)-1-(methyl(phenyl)amino)-1-oxo-3-phenylpropan-2-yl)amino)-2-oxoethyl)-3-oxopiperazin-1-yl)acetamido)-3-phenylpropanamide] | – | <1.00 | SI HIV IIIB (HIV-1 IIIB; [1]): ≤6.45 |
